From US10463660B2, “Benzoic acid, benzoic acid derivatives and heteroaryl carboxylic acid conjugates of oxymorphone, prodrugs, methods of making and use thereof” (KemPharm, Inc., priority 2014, dated 2019)

Experiments:
[1] = Intranasal PK profiles of conjugated oxymorphone in rats (released oxymorphone in plasma by LC-MS/MS); format: in vivo; conditions: for %-AUC / %-Cmax / %-Tmax: 0.2 mg/kg oxymorphone equivalent, relative to the OM control; for AUC / Cmax / Tmax: conjugate equivalent to 0.2 mg/kg freebase oxymorphone, released oxymorphone in plasma
Method: Intranasal PK curves were determined for a number of prodrug conjugates of the present technology. Rats were intranasally administered at an amount of the conjugate equivalent to 0.2 mg/kg of freebase oxymorphone and the plasma concentrations of released oxymorphone were measured over time by LC-MS/MS.
All PK parameters from the above experiments were calculated and expressed as % change from the control (OM). These PK parameters included maximal plasma concentration (Cmax), area under curve (AUC), and time at which Cmax occurred (Tmax). These parameters are shown in Table 2 relative to the OM controls.

[2] = Oral PK profiles of conjugated oxymorphone in rats (released oxymorphone in plasma by LC-MS/MS); format: in vivo, Sprague-Dawley rats; conditions: for %-AUC / %-Cmax / %-Tmax: 2 mg/kg oxymorphone equivalent, relative to the OM control; for AUC / Cmax / Tmax: conjugate equivalent to 2 mg/kg freebase oxymorphone, released oxymorphone in plasma
Method: Oral PK curves were determined for a number of prodrug conjugates of the present technology. Rats were orally administered at an amount of the conjugate equivalent to 2 mg/kg of freebase oxymorphone and the plasma concentrations of released oxymorphone were measured over time by LC-MS/MS.
All PK parameters from the above experiments were calculated and expressed as % change from the control (OM). These PK parameters included maximal plasma concentration (Cmax), area under curve (AUC), and time at which Cmax occurred (Tmax).

With CN1CC[C@]23c4c5ccc(OC(=O)c6ccccc6O)c4O[C@H]2C(=O)CC[C@@]3(O)[C@H]1C5 [3-(2-OH-Bz)-OM] the “%-AUC” value [1] was 66%, the “%-Cmax” value [1] was 55% and the “%-Tmax” value [1] was 100%. The AUC [1] was 65.9 ng·h/mL, the Cmax [1] was 276.1 ng/mL and the Tmax [1] was 4.8 min. For the same compound, the “%-AUC” value [2] was 72%, the “%-Cmax” value [2] was 74% and the “%-Tmax” value [2] was 62%. For the same compound, the AUC [2] was 31.3 ng·h/mL, the Cmax [2] was 17.5 ng/mL and the Tmax [2] was 39 min.
For CN1CC[C@]23c4c5ccc(O)c4O[C@H]2C(OC(=O)c2cc(-c4ccc(F)cc4F)ccc2O)=CC[C@@]3(O)[C@H]1C5 [6-Diflunisal-OM], the “%-AUC” value [1] was 25%, the “%-Cmax” value [1] was 11% and the “%-Tmax” value [1] was 100%. The AUC [1] was 20.7 ng·h/mL, the Cmax [1] was 39.1 ng/mL and the Tmax [1] was 4.8 min. The AUC [2] was 67.2 ng·h/mL, the Cmax [2] was 50.6 ng/mL and the Tmax [2] was 15 min.
For CN1CC[C@]23c4c5ccc(OC(=O)/C=C/c6ccccc6)c4O[C@H]2C(=O)CC[C@@]3(O)[C@H]1C5 [3-Cinnamate-OM], the “%-AUC” value [2] was 190%, the “%-Cmax” value [2] was 236% and the “%-Tmax” value [2] was 136%. The AUC [2] was 36.8 ng·h/mL, the Cmax [2] was 19.0 ng/mL and the Tmax [2] was 90 min.
In the case of COc1ccc(C(=O)OC2=CCC3(O)C4Cc5ccc(OC(=O)c6ccc(OC)cc6)c6c5C3(CCN4C)C2O6)cc1 (stereo not drawn) [3,6-(4-MeO-Bz)2-OM], the “%-AUC” value [1] is reported as 30%, the “%-Cmax” value [1] is reported as 9% and the “%-Tmax” value [1] is reported as 167%. It also gave an AUC [1] of 24.6 ng·h/mL, a Cmax [1] of 33.5 ng/mL and a Tmax [1] of 8.4 min. For the same compound, the “%-AUC” value [2] was 110%, the “%-Cmax” value [2] was 121% and the “%-Tmax” value [2] was 35%. It also gave an AUC [2] of 26.0 ng·h/mL, a Cmax [2] of 10.6 ng/mL and a Tmax [2] of 15 min.
For CN1CC[C@]23c4c5ccc(OC(=O)/C=C/c6ccccc6)c4O[C@H]2C(OC(=O)/C=C/c2ccccc2)=CC[C@@]3(O)[C@H]1C5 [3,6-(Cinnamate)2-OM], the “%-AUC” value [2] was 38%, the “%-Cmax” value [2] was 43% and the “%-Tmax” value [2] was 50%. The AUC [2] was 14.5 ng·h/mL, the Cmax [2] was 8.7 ng/mL and the Tmax [2] was 45 min.
For COc1cc(C(=O)Oc2ccc3c4c2O[C@H]2C(=O)CC[C@@]5(O)[C@@H](C3)N(C)CC[C@]425)ccc1O [3-Vanillate-OM], the “%-AUC” value [2] was 92%, the “%-Cmax” value [2] was 97% and the “%-Tmax” value [2] was 46%. It also gave an AUC [2] of 14.7 ng·h/mL, a Cmax [2] of 7.5 ng/mL and a Tmax [2] of 48 min.
In the case of CN1CC[C@]23c4c5ccc(O)c4O[C@H]2C(OC(=O)c2cccc(N)c2)=CC[C@@]3(O)[C@H]1C5 [6-(3-ABz)-OM], the “%-AUC” value [2] is reported as 46%, the “%-Cmax” value [2] is reported as 32% and the “%-Tmax” value [2] is reported as 276%. It also gave an AUC [2] of 16.7 ng·h/mL, a Cmax [2] of 6.2 ng/mL and a Tmax [2] of 114 min.
In the case of CC(C(=O)Oc1ccc2c3c1O[C@H]1C(=O)CC[C@@]4(O)[C@@H](C2)N(C)CC[C@]314)c1cccc(C(=O)c2ccccc2)c1 (stereo partly drawn) [3-Ketoprofen-OM], the “%-AUC” value [2] is reported as 159%, the “%-Cmax” value [2] is reported as 150% and the “%-Tmax” value [2] is reported as 30%. For the same compound, the AUC [2] was 49.7 ng·h/mL, the Cmax [2] was 30.3 ng/mL and the Tmax [2] was 18 min.
For CN1CC[C@]23c4c5ccc(OC(=O)c6cc(-c7ccc(F)cc7F)ccc6O)c4O[C@H]2C(=O)CC[C@@]3(O)[C@H]1C5 [3-Diflunisal-OM], the “%-AUC” value [1] was 131%, the “%-Cmax” value [1] was 41% and the “%-Tmax” value [1] was 200%. The AUC [1] was 108.2 ng·h/mL, the Cmax [1] was 151.5 ng/mL and the Tmax [1] was 10.2 min. For the same compound, the “%-AUC” value [2] was 85%, the “%-Cmax” value [2] was 52% and the “%-Tmax” value [2] was 340%. It also gave an AUC [2] of 17.6 ng·h/mL, a Cmax [2] of 13.2 ng/mL and a Tmax [2] of 51 min.
For CC(=O)Oc1ccccc1C(=O)Oc1ccc2c3c1OC1C(=O)CCC4(O)C(C2)N(C)CCC314 (stereo not drawn) [3-(2-AcO-Bz)-OM], the “%-AUC” value [2] was 72%, the “%-Cmax” value [2] was 78% and the “%-Tmax” value [2] was 25%. The AUC [2] was 22.5 ng·h/mL, the Cmax [2] was 15.8 ng/mL and the Tmax [2] was 15 min.
In the case of CN1CC[C@]23c4c5ccc(O)c4O[C@H]2C(OC(=O)c2ccccc2O)=CC[C@@]3(O)[C@H]1C5 [6-(2-OH-Bz)-OM], the “%-AUC” value [2] is reported as 134%, the “%-Cmax” value [2] is reported as 157% and the “%-Tmax” value [2] is reported as 60%. For the same compound, the AUC [2] was 50.6 ng·h/mL, the Cmax [2] was 31.6 ng/mL and the Tmax [2] was 45 min.
In the case of COc1ccc(C(=O)OC2=CC[C@@]3(O)[C@H]4Cc5ccc(O)c6c5[C@@]3(CCN4C)[C@H]2O6)cc1 [6-(4-MeO-Bz)-OM], the “%-AUC” value [2] is reported as 69%, the “%-Cmax” value [2] is reported as 90% and the “%-Tmax” value [2] is reported as 22%. The AUC [2] was 12.2 ng·h/mL, the Cmax [2] was 8.6 ng/mL and the Tmax [2] was 15 min.
For CN1CC[C@]23c4c5ccc(O)c4O[C@H]2C(OC(=O)c2ccccc2)=CC[C@@]3(O)[C@H]1C5 [Conjugate 6-Bz-OM], the “%-AUC” value [1] was 42%, the “%-Cmax” value [1] was 36% and the “%-Tmax” value [1] was 100%. The AUC [1] was 35.1 ng·h/mL, the Cmax [1] was 145.2 ng/mL and the Tmax [1] was 4.8 min. For the same compound, the “%-AUC” value [2] was 78%, the “%-Cmax” value [2] was 67% and the “%-Tmax” value [2] was 129%. It also gave an AUC [2] of 15.0 ng·h/mL, a Cmax [2] of 6.4 ng/mL and a Tmax [2] of 108 min.
In the case of CN1CC[C@]23c4c5ccc(O)c4O[C@H]2C(OC(=O)/C=C/c2ccccc2)=CC[C@@]3(O)[C@H]1C5 [6-Cinnamate-OM], the “%-AUC” value [2] is reported as 77%, the “%-Cmax” value [2] is reported as 59% and the “%-Tmax” value [2] is reported as 225%. For the same compound, the AUC [2] was 28.0 ng·h/mL, the Cmax [2] was 11.4 ng/mL and the Tmax [2] was 93 min.
In the case of CC(C(=O)Oc1ccc2c3c1O[C@H]1C(=O)CC[C@@]4(O)[C@@H](C2)N(C)CC[C@]314)c1cccc(Oc2ccccc2)c1 (stereo partly drawn) [3-Fenoprofen-OM], the “%-AUC” value [2] is reported as 59%, the “%-Cmax” value [2] is reported as 52% and the “%-Tmax” value [2] is reported as 100%. For the same compound, the AUC [2] was 14.8 ng·h/mL, the Cmax [2] was 9.6 ng/mL and the Tmax [2] was 36 min.
With CC(C(=O)OC1=CCC2(O)C3Cc4ccc(O)c5c4C2(CCN3C)C1O5)c1cccc(C(=O)c2ccccc2)c1 (stereo not drawn) [6-Ketoprofen-OM] the “%-AUC” value [2] was 99%, the “%-Cmax” value [2] was 47% and the “%-Tmax” value [2] was 260%. For the same compound, the AUC [2] was 20.6 ng·h/mL, the Cmax [2] was 11.8 ng/mL and the Tmax [2] was 39 min.
In the case of COc1cc(C(=O)OC2=CC[C@@]3(O)[C@H]4Cc5ccc(O)c6c5[C@@]3(CCN4C)[C@H]2O6)ccc1O [6-Vanillate-OM], the “%-AUC” value [2] is reported as 56%, the “%-Cmax” value [2] is reported as 65% and the “%-Tmax” value [2] is reported as 97%. It also gave an AUC [2] of 8.9 ng·h/mL, a Cmax [2] of 5.0 ng/mL and a Tmax [2] of 102 min.
In the case of COc1ccc(C(=O)Oc2ccc3c4c2O[C@H]2C(=O)CC[C@@]5(O)[C@@H](C3)N(C)CC[C@]425)cc1 [3-(4-MeO-Bz)-OM], the “%-AUC” value [1] is reported as 76%, the “%-Cmax” value [1] is reported as 61% and the “%-Tmax” value [1] is reported as 100%. It also gave an AUC [1] of 63.1 ng·h/mL, a Cmax [1] of 244.9 ng/mL and a Tmax [1] of 4.8 min. The “%-AUC” value [2] was 100%, the “%-Cmax” value [2] was 99% and the “%-Tmax” value [2] was 100%. It also gave an AUC [2] of 43.2 ng·h/mL, a Cmax [2] of 23.6 ng/mL and a Tmax [2] of 63 min.
